# Oligonucleotides are written 5' to 3', each unit as a sugar letter and its base; * is a phosphorothioate linkage, no mark a phosphodiester; rarer units and linkages stand in square brackets, end groups in braces. Plain capitals give the bases only. d = 2'-deoxy (DNA); {P} = phosphate
# Assays:
# NBS fibroblasts = test: FACS analysis of NBS fibroblasts; assay type: cell-based, human; settings: 40 μM
# Protocol: Fibroblasts were obtained from an NBS (Nijmegen breakage syndrome) patient, in which p95/Nbs1 was below the level of detection. Preconfluent cultures or normal (control) fibroblasts and NBS fibroblasts were treated with 40 μM of the oligonucleotides and collected after 48 hours for FACS analysis (FIGS. 34A–34H). The averages and standard deviations were calculated from triplicate cultures of each condition. FACS profiles from one representative experiment of three are shown.
# p53 = p53 (Homo sapiens, UniProt P04637); test: p53 assay using hGH reporter plasmid in keratinocytes; assay type: cell-based; parameters: expressed in transfected cells; vector from Dr. Bert Vogelstein; settings: 100 μM; 24 hours
# Protocol: Transfection was performed in the presence of 100 μM pTpT (Midland Certified Reagent Company, Midland, Tex.) or an equal volume of diluent. At the same time, the PSV-β-galactosidase control vector (Promega, Madison, Wis.) was co-transfected to determine the transfection efficiency (Norton and Coffin, 1985). Four hours after transfection, the medium was removed and replaced with K-Stim medium with or without 100 μM pTpT. Twenty-four hours after transfection and pTpT treatment, 400 μl of the medium was harvested from each 35 mm culture dish, and 100 μl of ^125I-hGH antibody solution (Nichols Institute Diagnostics, San Juan Capistrano, Calif.) was added to detect secreted hGH as described below. The cells were harvested in a Reporter Lysis Buffer (Promega) using a protocol provided by the manufacturer, and 150 μl of this lysate was used for the β-galactosidase assay using a β-galactosidase assay kit (Promega). Samples from each of triplicate culture dishes were evaluated for hGH and β-galactosidase synthesis.
# To confirm the activation of p53 by pTpT in a second assay, a reporter plasmid expressing the human growth hormone (hGH) gene under the influence of a p53 inducible promoter was employed. Activation of p53 increases its binding to the consensus sequence in the plasmid, leading to transcription of the hGH coding sequence and ultimately to secretion of hGH into the medium.
# [1] = test system: UV-damaged CAT reporter plasmid in human fibroblasts; test: Repair of UV-damaged CAT reporter plasmid in fibroblasts; assay type: cell-based; settings: 100 μM for five days before transfection; plasmid 100 mJ/cm^2 UVB
# Text: (§1) Expression of a UV-damaged reporter plasmid containing the bacterial chloramphenicol acetyltransferase (CAT) gene under the control of SV40 promoter and enhancer sequences was previously shown to detect decreased DNA repair capacity in human lymphocytes associated with aging and early-onset skin cancers. This reporter plasmid was used to measure the DNA repair capacity of normal neonatal human skin-derived fibroblasts and keratinocytes.
# (§2) Keratinocytes from newborns were established as described (Stanulis-Praeger, B. M. and Gilchrest, B. A., J. Cell. Physiol. 139:116–124 (1989)) using a modification of the method of Rheinwald and Green (Gilchrest, B. A. et al., J. Invest. Dermatol. 101:666–672 (1993)). First-passage keratinocytes were maintained in a non-differentiating low Ca^2+ medium (K-Stim, Collaborative Biomedical Products, Bedford, Mass.). […] CAT enzyme activity was determined using the liquid scintillation counting protocol and components of the assay system kit. […] Protein concentration in the cell extracts was determined by the method of Bradford (Anal. Biochem. 72:248 […]). CAT activity was expressed as c.p.m./100 μg protein and is represented as percent activity of cells transfected with sham-irradiated, non-damaged, plasmid.
# [2] = test system: Human cervical carcinoma cells (HeLa cells); test: Cell growth of HeLa cells; assay type: cell-based; settings: 100 μM; 1, 4 and 6 days after dosage
# Protocol: Human cervical carcinoma cells (HeLa cells) were maintained in DME+10% calf serum and dosed with either water (diluent) or 100 μM T2. Cells were collected 1, 4 and 6 days after dosage and counted by Coulter™ counter.
# [3] = test system: UV-damaged CAT reporter plasmid in human keratinocytes; test: Repair of UV-damaged CAT reporter plasmid in keratinocytes; assay type: cell-based; settings: 100 μM for five days before transfection; plasmid 100 mJ/cm^2 UVB
# Text: as §1, §2
# p53, sequence (P04637 whole entry): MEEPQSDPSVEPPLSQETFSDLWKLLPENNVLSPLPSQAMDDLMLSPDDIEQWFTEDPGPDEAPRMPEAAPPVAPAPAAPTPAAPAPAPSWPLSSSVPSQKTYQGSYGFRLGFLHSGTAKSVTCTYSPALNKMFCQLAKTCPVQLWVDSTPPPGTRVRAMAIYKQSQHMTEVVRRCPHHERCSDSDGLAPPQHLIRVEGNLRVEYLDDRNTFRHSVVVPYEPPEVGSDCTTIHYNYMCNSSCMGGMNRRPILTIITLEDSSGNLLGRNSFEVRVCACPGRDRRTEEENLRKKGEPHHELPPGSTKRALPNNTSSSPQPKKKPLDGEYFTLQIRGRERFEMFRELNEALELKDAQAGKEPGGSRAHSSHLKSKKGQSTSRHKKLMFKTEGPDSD
Substance,proliferation compared to diluent-treated NBS cells (NBS fibroblasts),"increase in the number of S-phase cells compared to diluent (NBS fibroblasts; 48 hours, not statistically significant (p<0.08))",increase in hGH secretion compared to diluent-treated cells (p53),CAT activity relative to sham-irradiated transfected controls [1],cell growth rate [2],CAT activity relative to sham-irradiated transfected controls [3]
pGTTAGGGTTAG (DNA {P}-dGdTdTdAdGdGdGdTdTdAdG) [SEQ ID NO: 5],minimally affected,8%,–,–,–,–
thymidine dinucleotide [pTpT],–,–,45%±25%,more than 50%,marked decreases in cell growth rate,more than 50%

# Source: patent publication US7033829B2, “Method to inhibit cell growth using oligonucleotides” (Trustees of Boston University, priority 2000, dated 2006)
